Assay results taken from article PMC12071598, “Piperazine-Substituted Pyranopyridines Exhibit Antiproliferative Activity and Act as Inhibitors of HBV Virion Production” (International Journal of Molecular Sciences, 2025).
Read-outs that look alike come from different tables or passages of the source.

Legend:
DU145 [1] = conditions: discussed for DU145; cited from earlier work
hepatitis B virus (HBV) = test: microbe, parasite or virus in culture; format: cell-based; conditions: for log reduction at 1 µM / log reduction at 10 µM: Hepatitis B virus, 144 h; for Extracellular HBV DNA (Δlog10): 1 µM, 6 days treatment, conditioned medium (virion production)
SH-SY5Y = test: Antiproliferative activity, crystal violet staining, SH-SY5Y; format: cell-based; conditions: Homo sapiens, SH-SY5Y neuroblastoma, 72 h
HeLa = test: Antiproliferative activity, MTT assay, HeLa; format: cell-based; conditions: Homo sapiens, HeLa cervix carcinoma, 72 h
K562 = test: Antiproliferative activity, MTT assay, K562; format: cell-based; conditions: Homo sapiens, K562 chronic myeloid leukemia, 72 h
VV = test: microbe, parasite or virus in culture; format: cell-based; conditions: Orthopoxvirus vaccinia, 48 h, read-out: VV IC50, µM
NDV = test: microbe, parasite or virus in culture; format: cell-based, Newcastle disease virus; conditions: avian paramyxovirus 1, 48 h, read-out: NDV IC50, µM
PV1 = test: microbe, parasite or virus in culture; format: cell-based, poliovirus type 1; conditions: Enterovirus C, 48 h, read-out: PV1 IC50, µM
DU145 [2] = test: Antiproliferative activity, MTT assay, DU145; format: cell-based; conditions: Homo sapiens, DU-145, DU145 prostate carcinoma, 72 h
HepaRG = test: Cytotoxicity towards non-tumor differentiated HepaRG cells, MTT; format: cell-based, human; conditions: concentration decreasing number of viable cells by 50%; for IC50: Homo sapiens
SARS-CoV-2 = test: microbe, parasite or virus in culture; format: cell-based
HSV-1 = test: microbe, parasite or virus in culture; format: cell-based, herpes simplex virus type 1; conditions: Human alphaherpesvirus 1, 48 h, read-out: HSV-1 IC50, µM
[3] = Cytotoxicity by MTS assay in MDCK cells; format: cell-based; conditions: dog, read-out: Influenza A Virus CC50
Procedure: Production of influenza A virus (H1N1) stock and its infection of MDCK cells, as well as infection of Vero E6 cells with SARS-CoV-2, were described previously. Cytotoxicity of the compounds towards MDCK and VeroE6 cells was assessed by seeding 18,000 cells/well of […] plates in 0.1 mL DMEM, treating with the compounds for 66 h, and measuring cell viability by MTS assay. As positive controls, oseltamivir and N-hydroxicytidine were used (obtained from Sigma).
The compounds were added at non-toxic concentrations in serum-free DMEM to the respective cells; one hour later, the serial 10-fold dilutions of influenza virus or SARS-CoV-2 were added in serum-free medium, and antiviral activity was determined by the reduction in the infectious titer of the virus by cytopathic action (CPE). Calculation of 50% cytotoxic concentration (CC50) and 50% effective concentration (IC50) was performed by standard methods using Microsoft Excel 5.0 and GraphPad Prism 8 (GraphPad Software Inc., Boston, MA, USA).

A549 = test: Antiproliferative activity, MTT assay, A549; format: cell-based; conditions: Homo sapiens, A549 lung carcinoma, 72 h
A549 cells = test: Intracellular ROS assay, DCFH2-DA in A549 cells; format: cell-based; conditions: A549, 10 µM, 72 h
Excerpt: As cell death is often triggered by increased production of reactive oxygen species (ROS), the next step was to evaluate if our compounds act as pro-oxidants. ROS production was accessed using cell-permeable redox sensitive DCFH2-DA dye. […] As one of the main sites of ROS production is mitochondria, we also evaluated their membrane potential during treatment with either DO11-46 or DO11-48. […] Lysosome activation often accompany late stages of apoptosis, which is in good accordance with our data on the induction of caspase3/7 activity.
Pro-oxidant activity of the compounds was studied by quantification of ROS production using a cell-permeable fluorogenic probe 2′,7′-dichlorodihydrofluorescein diacetate (DCFH2-DA). A549 cells were seeded on a 48-well plate at a density of 10,000 cells/well. Twenty-four hours later, the compounds were added to 10 µM concentration in quadruplicate, and the cells were kept for 72 h. As a positive control, A549 cells were treated with 1 mM H2O2 for 2 h prior analysis. Then, media were replaced with the fresh FBS-lacking DMEM supplemented with 25 µM DCFH2-DA. After 45 min incubation, the cells were washed 10 times with 500 µL PBS, resuspended in 200 µL PBS and transferred to a black 96-well plate. The fluorescence intensities (FLIs) were measured using CHAMELEON V microplate reader with excitation at 485 nm and emission at 535 nm.

Influenza A virus = test: microbe, parasite or virus in culture; format: cell-based, influenza A virus (H1N1)
[4] = read-out: Extracellular HBV DNA (Δlog10)
[5] = read-out: Intracellular Total HBV RNA (Δlog10)
[6] = Severe acute respiratory syndrome coronavirus 2, Vero C1008, read-out: SARS-CoV-2 IC50, µM

Structure (SMILES)	log reduction at 1 µM (hepatitis B virus (HBV); [4])	log reduction at 10 µM (hepatitis B virus (HBV); [4])	log reduction at 1 µM (hepatitis B virus (HBV); [5])	log reduction at 10 µM (hepatitis B virus (HBV); [5])	IC50 (SH-SY5Y)	IC50 (HeLa)	IC50 (K562)	IC50 (VV)	IC50 (NDV)	IC50 (PV1)	IC50 (DU145 [2])	IC50 (HepaRG)	IC50 (SARS-CoV-2; [6])	IC50 (HSV-1)	CC50 at 66 h [3]	IC50 (A549)	Influenza A Virus Δlgmax (Influenza A virus)	SARS-CoV-2 Δlgmax (SARS-CoV-2)	other results
Fc1ccc(C(c2ccc(F)cc2)N2CCNCC2)cc1 [1-bis(4-fluorophenyl)methylpiperazine]																			GI50 (DU145 [1]): 1.8 µM
Nc1ccn([C@@H]2CS[C@H](CO)O2)c(=O)n1 [3TC, Lamivudine, reference compound]	0.93	1.04	< 0.5	< 0.5															
O=c1[nH]cc(F)c(=O)[nH]1 [5-Fluorouracil, reference compound]					1.5 ± 0.2 µM	1.2 ± 0.3 µM	1.3 ± 0.3 µM												
CC1(C)Cc2c(C#N)c(SCC(N)=O)nc(N3CCNCC3)c2CO1 [DO11-37, 2-[(5-Cyano-3,3-dimethyl-8-piperazin-1-yl-3,4-dihydro-1H-pyrano[3,4-c]pyridin-6-yl)thio]acetamide]	1.97 ± 0.03	2.32 ± 0.16	< 0.5	< 0.5	99.4 ± 21.4 µM	133 ± 38 µM	91.4 ± 29.6 µM	> 300 µM	> 300 µM	> 300 µM	225 ± 52.4 µM	968 ± 87.8 µM	> 200 µM	> 300 µM	1680 µM	294 ± 35.9 µM			IC50 (µM) HepaRG (HepaRG): almost non-toxic; Extracellular HBV DNA (Δlog10) (hepatitis B virus (HBV)): significantly reduced levels of virion production
CC1(C)Cc2c(C#N)c(SCc3ccccc3Cl)nc(N3CCNCC3)c2CO1 [DO11-42, 6-[(2-Chlorobenzyl)thio]-3,3-dimethyl-8-piperazin-1-yl-3,4-dihydro-1H-pyrano[3,4-c]pyridine-5-carbonitrile]	2.52 ± 0.36	2.31 ± 0.29	< 0.5	0.53 ± 0.31	4.5 ± 1.8 µM	1.9 ± 0.3 µM	1.5 ± 0.8 µM	> 7.5 µM	> 7.5 µM	> 7.5 µM	1.3 ± 0.2 µM	24.5 ± 2.8 µM	> 15 µM	> 7.5 µM	440 µM	7 ± 1.9 µM	0.5	0	ROS generation (A549 cells): significantly increased ROS generation; Extracellular HBV DNA (Δlog10) (hepatitis B virus (HBV)): significantly reduced levels of virion production
CC(=O)c1ccc(NC(=O)CSc2nc(N3CCNCC3)c3c(c2C#N)CC(C)(C)OC3)cc1 [DO11-50, N-(4-acetylphenyl)-2-[(5-cyano-3,3-dimethyl-8-piperazin-1-yl-3,4-dihydro-1H-pyrano[3,4-c]pyridin-6-yl)thio]acetamide]	< 0.5	< 0.5	< 0.5	< 0.5	13.2 ± 4.3 µM	74.5 ± 3.5 µM	45.6 ± 20 µM	> 5 µM	> 5 µM	> 5 µM	26.7 ± 8.4 µM	42.4 ± 8.3 µM	> 15 µM	> 5 µM	1270 µM	45.8 ± 12.6 µM	0	0	
O=c1nc(NO)ccn1[C@@H]1O[C@H](CO)[C@@H](O)[C@H]1O [N-HydroxyC, N-hydroxicytidine, reference compound]																		5.0	IC50 (SARS-CoV-2; read-out: SARS-CoV-2 IC50): 0.5 µM
CCOC(=O)C1=C[C@@H](OC(CC)CC)[C@H](NC(C)=O)[C@@H](N)C1 [Oseltamivir, reference compound]															> 10 µM		6.0		IC50 (Influenza A virus; Influenza A virus, MDCK, read-out: Influenza A Virus IC50, µM): 0.02 µM
CNC(=O)c1cc(Oc2ccc(NC(=O)Nc3ccc(Cl)c(C(F)(F)F)c3)cc2)ccn1 [Sorafenib, reference compound]					40 ± 10 µM							> 100 µM							
FC(F)(F)c1ccc(CN2CCNCC2)cc1 [[4-(trifluoromethyl)benzyl]piperazine]																			GI50 (DU145 [1]): 1.6 µM
